How the values were obtained:
Conditions in all cases: 72 h
LAMA-84 = test system: LAMA-84
In short: (§1)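 For the IC50, dose–response curves were fitted with a log-logistic model. The data came from fifteen myeloid leukaemia cell lines grown in RPMI 1640 at densities in the linear growth range and incubated in 384-well plates for 72 h at 37 °C under 5% CO2. Doses were five tenfold steps from 1 to 10,000 nM in duplicate, and luminescent ATP viability was normalised to vehicle and to a positive control at 10 µM before four-parameter fitting.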

HL-60 [1] = test system: HL-60
In short: as §1

KCL-22 = test system: KCL-22
In short: as §1

BV-173 = test system: BV-173
In short: as §1

MOLM-13 = test system: MOLM-13
In short: as §1

HEL = test system: HEL
In short: as §1

THP-1 = test system: THP-1
In short: as §1

SHI-1 = test system: SHI-1
In short: as §1

ML-2 = test system: ML-2
In short: as §1

KG-1 = test system: KG-1
In short: as §1

[2] = test system: myeloid leukemia patient primary cells Pat.1; test: cell viability (% survival relative to DMSO control); higher = less cytotoxic
In short: (§2)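 Thawed, Ficoll-purified mononuclear cells from AML or CML patients in RPMI 1640 with 10% FBS were seeded at 10,000 cells/well on 384-well plates pre-printed with 70 compounds at five tenfold concentrations, 1–10,000 nM, in duplicate, for 72 h. Viability was read by CellTiter-Glo and normalised to DMSO and 10 μM proteasome-inhibitor wells. Where given, area under the curve came from four-parameter log-logistic fits (drc, PharmacoGx R packages).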

[3] = test system: myeloid leukemia patient primary cells Pat.8; test: as above
In short: as §2

[4] = test system: myeloid leukemia patient primary cells Pat.5; test: as above
In short: as §2

[5] = test system: myeloid leukemia patient primary cells Pat.6; test: as above
In short: as §2

[6] = test system: myeloid leukemia patient primary cells Pat.14; test: as above
In short: as §2

[7] = test system: myeloid leukemia patient primary cells Pat.7; test: as above
In short: as §2

[8] = test system: myeloid leukemia patient primary cells Pat.13; test: as above
In short: as §2

[9] = test system: myeloid leukemia patient primary cells Pat.2; test: as above
In short: as §2

[10] = test system: myeloid leukemia patient primary cells Pat.3; test: as above
In short: as §2

[11] = test system: myeloid leukemia patient primary cells Pat.10; test: as above
In short: as §2

[12] = test system: myeloid leukemia patient primary cells Pat.12; test: as above
In short: as §2

[13] = test system: myeloid leukemia patient primary cells Pat.4; test: as above
In short: as §2

[14] = test system: myeloid leukemia patient primary cells Pat.9; test: as above
In short: as §2

[15] = test system: myeloid leukemia patient primary cells Pat.11; test: as above
In short: as §2

[16] = test system: myeloid leukemia patient primary cells Pat.15; test: as above
In short: as §2

HL-60 [17] = test: area under dose-response curve (viability, 1 nM-10 uM) (fraction (0-1)); higher = more sensitive
In short: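 A rescreen of the full library used HL-60 cells in RPMI 1640 with 10% FBS on 384-well plates, run in duplicate at five tenfold concentrations (1–10,000 nM). Each screen included DMSO or 100 nM of one of three metabolic inhibitors and ran 72 h at 37 °C, 5% CO2. CellTiter-Glo viability was scaled between DMSO and 10 μM proteasome-inhibitor wells. Any area under the curve comes from four-parameter log-logistic fits with drc and PharmacoGx.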

C=C(C=NNC(=N)N)NNC(=N)N [Mitoguazone]
Conditions | IC50 (cell viability)
BV-173 | 1440 nM
HEL | 9.12 µM
HL-60 [1] | 7.01 µM
KCL-22 | 4.4 µM
KG-1 | 3.31 µM
LAMA-84 | 2290 nM
ML-2 | 916 nM
MOLM-13 | 944 nM
SHI-1 | 1100 nM
THP-1 | 3.08 µM

Conditions | area under dose-response curve, co-treatment: AZD3965 100 nM | area under dose-response curve, co-treatment: DMSO vehicle | area under dose-response curve, co-treatment: GSK2194069 100 nM | area under dose-response curve, co-treatment: pictilisib 100 nM | cell viability, 1 nM [%] | cell viability, 10 nM [%] | cell viability, 100 nM [%] | cell viability, 1000 nM [%] | cell viability, 10000 nM [%]
HL-60 [17] | 0.0689 | < 0.0301 | 0.0353 | 0.0324 | – | – | – | – | –
[2] | – | – | – | – | 86.1 | 72.5 | 93.5 | 94.2 | 69
[3] | – | – | – | – | 94.1 | 69 | 50 | 99.8 | 94.2
[4] | – | – | – | – | > 100 | 0.912 | 0.265 | 1.33 | 78.9
[5] | – | – | – | – | > 100 | 82 | 44.5 | 1.04 | 50.8
[6] | – | – | – | – | 91.4 | 54.7 | 4.62 | 2.41 | 80.8
[7] | – | – | – | – | 65.3 | 85.7 | < 0 | < 0 | 54.5
[8] | – | – | – | – | 88.3 | 78.5 | 91.2 | 50.8 | > 100
[9] | – | – | – | – | 96.2 | 79.2 | 49.2 | 50 | 67.7
[10] | – | – | – | – | 97.3 | 82.2 | 51.4 | 4.18 | 53
[11] | – | – | – | – | 78.7 | 59.4 | 13.6 | 28.1 | 89.2
[12] | – | – | – | – | > 100 | 90 | 99.3 | 96.9 | 99.4
[13] | – | – | – | – | 92.5 | 82.3 | 48.1 | 92.3 | 44.2
[14] | – | – | – | – | 75.2 | 50.8 | 1.24 | 1.6 | 57.2
[15] | – | – | – | – | 98.8 | 92.1 | > 100 | 98.6 | 84.1
[16] | – | – | – | – | 89.7 | 82.8 | 91.4 | 69.4 | 19.6

Source: the supplement of paper PMC8671470
